Experimental data as given in patent US20100215579A1, “PHEN-NAPHTHALENE AND PHEN-QUINOLINE DERIVATIVES AND THEIR USE FOR BINDING AND IMAGING AMYLOID PLAQUES” (The Trustees of the University of Pennsylvania, priority 2007, published 2010).

Key:
amyloid plaques = target: T1, amyloid plaques (Homo sapiens, UniProt P05067); experiment: Ki values of Phen-Nap, Nap-Phen derivatives (Ki binding data)
T1 construct: fibrillary Aβ plaques consisting predominately of aggregates of Aβ40 and Aβ42 peptides

[1] = Biodistribution in ICR mice after an iv injection; format: in vivo
From the text: Biodistribution in ICR Mice After an iv Injection of [^18F][4-(6-{2-[2-(2-Fluoro-ethoxy)-ethoxy]-ethoxy}-naphthalen-2-yl)-phenyl]-methyl-amine in 1% EtOH/0.1% BSA in Water
(% dose/organ, avg of 3 mice±SD)
(% dose/g, avg of 3 mice±SD)
Biodistribution in ICR Mice After an iv Injection of [^18F]19a in 3% EtOH/0.1% BSA in Water
Biodistribution in ICR Mice After an iv Injection of [^18F]34a in 5% EtOH/0.1% BSA in Water
Biodistribution in ICR Mice After an iv Injection of [^18F]32a in 1% EtOH/0.1% BSA in Water

[2] = Blood, 2 min after iv injection
[3] = Blood, 30 min after iv injection
[4] = Bone, 30 min after iv injection
[5] = Brain, 2 min after iv injection
[6] = Brain, 30 min after iv injection
[7] = Heart, 2 min after iv injection
[8] = Heart, 30 min after iv injection
[9] = Kidney, 2 min after iv injection
[10] = Kidney, 30 min after iv injection
[11] = Kidney, 1 hr after iv injection
[12] = Kidney, 2 hr after iv injection
[13] = Liver, 2 min after iv injection
[14] = Liver, 30 min after iv injection
[15] = Lung, 30 min after iv injection
[16] = Muscle, 2 min after iv injection
[17] = Muscle, 30 min after iv injection
[18] = Muscle, 1 hr after iv injection
[19] = Muscle, 2 hr after iv injection
[20] = Skin, 30 min after iv injection
[21] = Spleen, 2 min after iv injection
[22] = Spleen, 30 min after iv injection
[23] = Spleen, 1 hr after iv injection
[24] = Spleen, 2 hr after iv injection

T1 sequence (P05067 672-713 limits assumed): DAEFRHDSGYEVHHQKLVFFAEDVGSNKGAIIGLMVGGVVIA
T1 sequence (P05067 672-711 limits assumed): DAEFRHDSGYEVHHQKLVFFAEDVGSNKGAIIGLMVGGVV

Compound: Nc1ccc(-c2ccc3cc(OCCOCCOCCF)ccc3c2)cc1 [Compound 11a, 4-(6-(2-(2-(2-fluoroethoxy)ethoxy)ethoxy)naphthalen-2-yl)benzenamine]
- Ki (amyloid plaques): 12.5 ± 1.2 nM

Compound: Nc1ccc(-c2ccc3cc(OCCOCCOCCO)ccc3c2)cc1 [Compound 11b, 2-(2-(2-(6-(4-aminophenyl)naphthalen-2-yloxy)ethoxy)ethoxy)ethanol]
- Ki (amyloid plaques): 22 nM

Compound: CN(C)c1ccc(-c2ccc3cc(OCCOCCOCCF)ccc3c2)cc1 [Compound 12a, 4-(6-(2-(2-(2-fluoroethoxy)ethoxy)ethoxy)naphthalen-2-yl)-N,N-dimethylbenzenamine]
- Ki (amyloid plaques): 3.1 nM

Compound: CNc1ccc(-c2ccc3cc(OCCOCCOCCO)ccc3c2)cc1 [Compound 13b, 2-(2-(2-(6-(4-(methylamino)phenyl)naphthalen-2-yloxy)ethoxy)ethoxy)ethanol]
- Ki (amyloid plaques): 1 nM

Compound: Nc1ccc2cc(-c3ccc(O)cc3)ccc2c1 [Compound 16, 4-(6-aminonaphthalen-2-yl)phenol]
- Ki (amyloid plaques): 33.5 ± 11 nM

Compound: Nc1ccc2cc(-c3ccc(OCCOCCOCCF)cc3)ccc2c1 [Compound 17a, 6-(4-(2-(2-(2-fluoroethoxy)ethoxy)ethoxy)phenyl)naphthalen-2-amine]
- Ki (amyloid plaques): 20 ± 5 nM

Compound: Nc1ccc2cc(-c3ccc(OCCOCCOCCO)cc3)ccc2c1 [Compound 17b, 2-(2-(2-(4-(6-aminonaphthalen-2-yl)phenoxy)ethoxy)ethoxy)ethanol]
- Ki (amyloid plaques): 27 nM

Compound: CN(C)c1ccc2cc(-c3ccc(OCCOCCOCCF)cc3)ccc2c1 [Compound 18a, 6-(4-(2-(2-(2-fluoroethoxy)ethoxy)ethoxy)phenyl)-N,N-dimethylnaphthalen-2-amine]
- Ki (amyloid plaques): 5.6 nM

Compound: CN(C)c1ccc2cc(-c3ccc(OCCOCCOCCO)cc3)ccc2c1 [Compound 18b, 2-(2-(2-(4-(6-(dimethylamino)naphthalen-2-yl)phenoxy)ethoxy)ethoxy)ethanol]
- Ki (amyloid plaques): 6.5 nM

Compound: CNc1ccc2cc(-c3ccc(OCCOCCOCCF)cc3)ccc2c1 [Compound 19a, 6-(4-(2-(2-(2-fluoroethoxy)ethoxy)ethoxy)phenyl)-N-methylnaphthalen-2-amine]
- Ki (amyloid plaques): 3 nM

Compound: CNc1ccc2cc(-c3ccc(OCCOCCOCCO)cc3)ccc2c1 [Compound 19b, 2-(2-(2-(4-(6-(methylamino)naphthalen-2-yl)phenoxy)ethoxy)ethoxy)ethanol]
- Ki (amyloid plaques): 6 nM

Compound: COc1ccc(-c2ccc3cc(N(C)C)ccc3c2)cc1 [Compound 23, 6-(4-methoxyphenyl)-N,N-dimethylnaphthalen-2-amine]
- Ki (amyloid plaques): 1.4 nM

Compound: CN(C)c1ccc2cc(-c3ccc(O)cc3)ccc2c1 [Compound 24, 4-(6-(dimethylamino)naphthalen-2-yl)phenol]
- Ki (amyloid plaques): 4.2 nM

Compound: COc1ccc(-c2ccc3cc(O)ccc3c2)cc1 [Compound 25, 6-(4-methoxyphenyl)naphthalen-2-ol]
- Ki (amyloid plaques): 1.5 nM

Compound: Oc1ccc(-c2ccc3cc(OCCOCCOCCF)ccc3c2)cc1 [Compound 26, 4-(6-(2-(2-(2-fluoroethoxy)ethoxy)ethoxy)naphthalen-2-yl)phenol]
- Ki (amyloid plaques): 16.5 nM

Compound: Oc1ccc2cc(-c3ccc(OCCOCCOCCF)cc3)ccc2c1 [Compound 28, 6-(4-(2-(2-(2-fluoroethoxy)ethoxy)ethoxy)phenyl)naphthalen-2-ol]
- Ki (amyloid plaques): 16 nM

Compound: CN(C)c1ccc(-c2ccc3nc(OCCOCCOCCF)ccc3c2)cc1 [Compound 32a, 4-(2-(2-(2-(2-fluoroethoxy)ethoxy)ethoxy)quinolin-6-yl)-N,N-dimethylbenzenamine]
- Ki (amyloid plaques): 4.4 nM

Compound: CN(C)c1ccc(-c2ccc3nc(OCCOCCOCCO)ccc3c2)cc1 [Compound 32b, 2-(2-(2-(6-(4-(dimethylamino)phenyl)quinolin-2-yloxy)ethoxy)ethoxy)ethanol]
- Ki (amyloid plaques): 4.7 nM

Compound: CNc1ccc(-c2ccc3cc(OCCOCCOCCF)ccc3c2)cc1 [[^18F][4-(6-{2-[2-(2-Fluoro-ethoxy)-ethoxy]-ethoxy}-naphthalen-2-yl)-phenyl]-methyl-amine]
- % dose/g [1, 2]: 2.08 ± 0.20 % dose/g
- % dose/organ [1, 2]: 3.50 ± 0.18 % dose/organ
- % dose/g [1, 3]: 1.72 ± 0.29 % dose/g
- % dose/organ [1, 3]: 2.99 ± 0.48 % dose/organ
- % dose/g ([1]; Blood, 1 hr after iv injection): 1.41 ± 0.33 % dose/g
- % dose/organ ([1]; Blood, 1 hr after iv injection): 2.73 ± 0.41 % dose/organ
- % dose/g ([1]; Blood, 2 hr after iv injection): 2.22 ± 0.37 % dose/g
- % dose/organ ([1]; Blood, 2 hr after iv injection): 3.59 ± 0.53 % dose/organ
- % dose/g ([1]; Bone, 2 min after iv injection): 2.14 ± 0.82 % dose/g
- % dose/organ ([1]; Bone, 2 min after iv injection): 7.38 ± 3.40 % dose/organ
- % dose/g [1, 4]: 0.97 ± 0.03 % dose/g
- % dose/organ [1, 4]: 3.36 ± 0.09 % dose/organ
- % dose/g ([1]; Bone, 1 hr after iv injection): 1.19 ± 0.21 % dose/g
- % dose/organ ([1]; Bone, 1 hr after iv injection): 4.61 ± 0.36 % dose/organ
- % dose/g ([1]; Bone, 2 hr after iv injection): 2.18 ± 0.19 % dose/g
- % dose/organ ([1]; Bone, 2 hr after iv injection): 7.07 ± 0.57 % dose/organ
- % dose/g [1, 5]: 7.26 ± 1.28 % dose/g
- % dose/organ [1, 5]: 3.43 ± 0.51 % dose/organ
- % dose/g [1, 6]: 2.15 ± 0.25 % dose/g
- % dose/organ [1, 6]: 0.95 ± 0.08 % dose/organ
- % dose/g ([1]; Brain, 1 hr after iv injection): 1.58 ± 0.18 % dose/g
- % dose/organ ([1]; Brain, 1 hr after iv injection): 0.75 ± 0.06 % dose/organ
- % dose/g ([1]; Brain, 2 hr after iv injection): 1.91 ± 0.12 % dose/g
- % dose/organ ([1]; Brain, 2 hr after iv injection): 0.88 ± 0.06 % dose/organ
- % dose/g [1, 7]: 5.44 ± 0.25 % dose/g
- % dose/organ [1, 7]: 0.63 ± 0.08 % dose/organ
- % dose/g [1, 8]: 2.04 ± 0.30 % dose/g
- % dose/organ [1, 8]: 0.23 ± 0.02 % dose/organ
- % dose/g ([1]; Heart, 1 hr after iv injection): 1.46 ± 0.24 % dose/g
- % dose/organ ([1]; Heart, 1 hr after iv injection): 0.18 ± 0.01 % dose/organ
- % dose/g ([1]; Heart, 2 hr after iv injection): 1.79 ± 0.19 % dose/g
- % dose/organ ([1]; Heart, 2 hr after iv injection): 0.19 ± 0.03 % dose/organ
- % dose/g [1, 9]: 8.88 ± 1.80 % dose/g
- % dose/organ [1, 9]: 3.27 ± 0.60 % dose/organ
- % dose/g [1, 10]: 3.98 ± 0.64 % dose/g
- % dose/organ [1, 10]: 1.45 ± 0.12 % dose/organ
- % dose/g [1, 11]: 2.75 ± 0.35 % dose/g
- % dose/organ [1, 11]: 1.05 ± 0.25 % dose/organ
- % dose/g [1, 12]: 2.52 ± 0.18 % dose/g
- % dose/organ [1, 12]: 0.88 ± 0.10 % dose/organ
- % dose/g [1, 13]: 19.7 ± 3.24 % dose/g
- % dose/organ [1, 13]: 26.5 ± 2.18 % dose/organ
- % dose/g [1, 14]: 13.4 ± 1.30 % dose/g
- % dose/organ [1, 14]: 17.1 ± 1.54 % dose/organ
- % dose/g ([1]; Liver, 1 hr after iv injection): 9.46 ± 1.50 % dose/g
- % dose/organ ([1]; Liver, 1 hr after iv injection): 16.3 ± 1.39 % dose/organ
- % dose/g ([1]; Liver, 2 hr after iv injection): 11.9 ± 1.87 % dose/g
- % dose/organ ([1]; Liver, 2 hr after iv injection): 13.5 ± 1.77 % dose/organ
- % dose/g ([1]; Lung, 2 min after iv injection): 5.73 ± 0.19 % dose/g
- % dose/organ ([1]; Lung, 2 min after iv injection): 1.08 ± 0.05 % dose/organ
- % dose/g [1, 15]: 2.78 ± 0.30 % dose/g
- % dose/organ [1, 15]: 0.53 ± 0.10 % dose/organ
- % dose/g ([1]; Lung, 1 hr after iv injection): 1.99 ± 0.26 % dose/g
- % dose/organ ([1]; Lung, 1 hr after iv injection): 0.41 ± 0.05 % dose/organ
- % dose/g ([1]; Lung, 2 hr after iv injection): 2.44 ± 0.37 % dose/g
- % dose/organ ([1]; Lung, 2 hr after iv injection): 0.48 ± 0.16 % dose/organ
- % dose/g [1, 16]: 1.21 ± 0.98 % dose/g
- % dose/organ [1, 16]: 11.8 ± 9.69 % dose/organ
- % dose/g [1, 17]: 1.27 ± 0.06 % dose/g
- % dose/organ [1, 17]: 12.7 ± 0.64 % dose/organ
- % dose/g [1, 18]: 0.92 ± 0.09 % dose/g
- % dose/organ [1, 18]: 10.3 ± 0.54 % dose/organ
- % dose/g [1, 19]: 0.97 ± 0.06 % dose/g
- % dose/organ [1, 19]: 9.00 ± 0.56 % dose/organ
- % dose/g ([1]; Skin, 2 min after iv injection): 1.01 ± 0.16 % dose/g
- % dose/organ ([1]; Skin, 2 min after iv injection): 3.66 ± 0.74 % dose/organ
- % dose/g [1, 20]: 1.90 ± 0.08 % dose/g
- % dose/organ [1, 20]: 7.08 ± 0.26 % dose/organ
- % dose/g ([1]; Skin, 1 hr after iv injection): 1.56 ± 0.18 % dose/g
- % dose/organ ([1]; Skin, 1 hr after iv injection): 6.53 ± 0.12 % dose/organ
- % dose/g ([1]; Skin, 2 hr after iv injection): 1.32 ± 0.09 % dose/g
- % dose/organ ([1]; Skin, 2 hr after iv injection): 4.60 ± 0.29 % dose/organ
- % dose/g [1, 21]: 5.11 ± 0.49 % dose/g
- % dose/organ [1, 21]: 0.47 ± 0.03 % dose/organ
- % dose/g [1, 22]: 2.12 ± 0.33 % dose/g
- % dose/organ [1, 22]: 0.23 ± 0.01 % dose/organ
- % dose/g [1, 23]: 1.81 ± 0.17 % dose/g
- % dose/organ [1, 23]: 0.23 ± 0.02 % dose/organ
- % dose/g [1, 24]: 2.08 ± 0.44 % dose/g
- % dose/organ [1, 24]: 0.19 ± 0.03 % dose/organ
